According to patent US20200339625A1, “NOVEL RADIOMETAL-BINDING COMPOUNDS FOR DIAGNOSIS OR TREATMENT OF PROSTATE SPECIFIC MEMBRANE ANTIGEN-EXPRESSING CANCER” (PROVINCIAL HEALTH SERVICES AUTHORITY, priority 2017, published 2020):

Columns and labels:
human serum = assay: Plasma protein binding assay; assay type: in vitro ADME; settings: for filter-bound radioactivity: n=3
Procedure: 1.16 Plasma Protein Binding Assay
Plasma protein binding assays were performed according to literature methods.^19 Briefly, 37 kBq of ^177Lu-PSMA-617 or ^177Lu-HTK01169 in 50 μL PBS was added into 200 μL human serum and the mixture was incubated at room temperature for […]. The mixture was then loaded onto a membrane filter (Nanosep®, 30 K, Pall Corporation, USA) and centrifuged for 45 min (30,130×g). Saline (50 μL) was added and centrifugation was continued for another 15 min. The top part with the membrane filter and the bottom part with the solution were counted on a gamma counter. For control, saline was used in place of human serum.

[1] = tested on: mice bearing LNCaP xenografts; assay: Biodistribution of 177Lu-labeled compounds; assay type: in vivo
Procedure: 1.17 SPECT/CT Imaging, Biodistribution and Endoradiotherapy Studies
(§1) SPECT/CT imaging and biodistribution were performed using NOD-scid IL2Rgammanu^null (NSG) male mice, and the endoradiotherapy study was conducted using NOD.Cg-Rag1^tm1MomII2rg^tm1WjI/SzJ (NRG) male mice. The mice were maintained and the experiments were conducted in according to the guidelines established by the Canadian Council on Animal Care and approved by Animal Ethics Committee of the University of British Columbia. Mice were anesthetized by inhalation with 2% isoflurane in oxygen, and implanted subcutaneously with 1×10^7 LNCaP cells posterior to the left shoulder. Mice were used for studies when the tumor reached 5-8 mm in diameter 5-6 weeks after inoculation.
For biodistribution studies, the mice were injected with ^177Ludabeled PSMA-617 or HTK01169 (2-4 MBq) as described above. At predetermined time points (1, 4, 24, 72, or 120 h post-injection), the mice were euthanized by CO2 inhalation. Blood was withdrawn immediately from the heart, and the organs/tissues of interest were collected. The collected organs/tissues were weighed and counted using an automated gamma counter. For the blocking study, mice were co-injected with ^177Lu-HTK01169 (2-4 MBq) and 50 nmol of the non-radioactive standard, and organs/tissues of interest were collected at 4 h post-injection.

LNCaP tumor-bearing mice = assay: Endoradiotherapy study; assay type: in vivo
Procedure: as §1
For radiotherapy study, tumor-bearing mice were injected with saline (the control group), ^177Lu-PSMA-617 (18.5 MBq) or ^177Lu-HTK01169 (18.5, 9.3, 4.6, or 2.3 MBq) (n=8 per group). Tumor size and body weight were measured twice a week from the date of injection (Day 0) until completion of the study (Day 120). Endpoint criteria were defined as >20% weight loss, tumor volume >1000 mm^3, or active ulceration of the tumor.

Compound `O=C([O-])CN1CCN(CC(=O)[O-])CCN(CC(=O)NCC2CCC(C(=O)N[C@@H](Cc3ccc4ccccc4c3)C(=O)NCCCC[C@H](NC(=O)N[C@@H](CCC(=O)O)C(=O)O)C(=O)O)CC2)CCN(CC(=O)[O-])CC1.[177Lu+3]` (stereo partly drawn) [^177Lu-PSMA-617, reference compound] has a free radioligand (human serum; human serum) of about 17%, a filter-bound radioactivity (human serum; incubated with human serum) of 82.7±0.32% and a filter-bound radioactivity (human serum; incubated with saline (control)) of 5.21±1.42%. The “tumor-to-background contrast ratios, trend” value ([1]; 1-120 h) was “improved over time as well”, the Adrenal glands uptake ([1]; 1 h post-injection) was 4.88±2.41 % ID/g and the Blood uptake ([1]; 1 h post-injection) was 0.68±0.23 % ID/g. For the same compound, the Bone uptake ([1]; 1 h post-injection) was 0.14 ± 0.06 % ID/g, the Brain uptake ([1]; 1 h post-injection) was 0.03 ± 0.01 % ID/g and the Fat uptake ([1]; 1 h post-injection) was 0.46 ± 0.18 % ID/g. The Heart uptake ([1]; 1 h post-injection) was 0.28 ± 0.10 % ID/g, the Intestine uptake ([1]; 1 h post-injection) was 0.26 ± 0.16 % ID/g and the Kidneys uptake ([1]; 1 h post-injection) was 97.2±19.4 % ID/g. It also gave a Liver uptake ([1]; 1 h post-injection) of 0.26 ± 0.15 % ID/g, a Lung uptake ([1]; 1 h post-injection) of 1.34±0.39 % ID/g and a Muscle uptake ([1]; 1 h post-injection) of 0.18 ± 0.06 % ID/g. For the same compound, the Pancreas uptake ([1]; 1 h post-injection) was 0.33 ± 0.18 % ID/g, the Seminal uptake ([1]; 1 h post-injection) was 0.14 ± 0.08 % ID/g and the Spleen uptake ([1]; 1 h post-injection) was 3.34±1.77 % ID/g. For the same compound, the Stomach uptake ([1]; 1 h post-injection) was 0.18 ± 0.14 % ID/g, the Testes uptake ([1]; 1 h post-injection) was 0.49 ± 0.22 % ID/g and the Tumor uptake ([1]; 1 h post-injection) was 15.1±5.58 % ID/g. The Tumor/blood ratio ([1]; 1 h post-injection) was 22.8 ± 6.85, the Tumor/kidney ratio ([1]; 1 h post-injection) was 0.15 ± 0.04 and the Tumor/muscle ratio ([1]; 1 h post-injection) was 86.9 ± 26.6. It also gave an Adrenal glands uptake ([1]; 4 h post-injection) of 0.40 ± 0.18 % ID/g, a Blood uptake ([1]; 4 h post-injection) of 0.12 ± 0.18 % ID/g and a Bone uptake ([1]; 4 h post-injection) of 0.06 ± 0.03 % ID/g. The Brain uptake ([1]; 4 h post-injection) was 0.02 ± 0.00 % ID/g, the Fat uptake ([1]; 4 h post-injection) was 0.16 ± 0.11 % ID/g and the Heart uptake ([1]; 4 h post-injection) was 0.04 ± 0.02 % ID/g. It also gave an Intestine uptake ([1]; 4 h post-injection) of 0.07 ± 0.04 % ID/g, a Kidneys uptake ([1]; 4 h post-injection) of 26.6 ± 19.1 % ID/g and a Liver uptake ([1]; 4 h post-injection) of 0.08 ± 0.06 % ID/g. For the same compound, the Lung uptake ([1]; 4 h post-injection) was 0.16 ± 0.07 % ID/g, the Muscle uptake ([1]; 4 h post-injection) was 0.05 ± 0.03 % ID/g and the Pancreas uptake ([1]; 4 h post-injection) was 0.05 ± 0.01 % ID/g. It also gave a Seminal uptake ([1]; 4 h post-injection) of 0.02 ± 0.01 % ID/g, a Spleen uptake ([1]; 4 h post-injection) of 0.24 ± 0.14 % ID/g and a Stomach uptake ([1]; 4 h post-injection) of 0.04 ± 0.02 % ID/g. For the same compound, the Testes uptake ([1]; 4 h post-injection) was 0.06 ± 0.01 % ID/g, the Tumor uptake ([1]; 4 h post-injection) was 14.5 ± 1.83 % ID/g and the Tumor/blood ratio ([1]; 4 h post-injection) was 290 ± 175. The Tumor/kidney ratio ([1]; 4 h post-injection) was 0.79 ± 0.48, the Tumor/muscle ratio ([1]; 4 h post-injection) was 371 ± 171 and the Adrenal glands uptake ([1]; 24 h post-injection) was 0.06 ± 0.03 % ID/g. It also gave a Blood uptake ([1]; 24 h post-injection) of 0.00 ± 0.00 % ID/g, a Bone uptake ([1]; 24 h post-injection) of 0.03 ± 0.02 % ID/g and a Brain uptake ([1]; 24 h post-injection) of 0.01 ± 0.00 % ID/g. It also gave a Fat uptake ([1]; 24 h post-injection) of 0.08 ± 0.03 % ID/g, a Heart uptake ([1]; 24 h post-injection) of 0.01 ± 0.00 % ID/g and an Intestine uptake ([1]; 24 h post-injection) of 0.02 ± 0.00 % ID/g. For the same compound, the Kidneys uptake ([1]; 24 h post-injection) was 0.58 ± 0.22 % ID/g, the Liver uptake ([1]; 24 h post-injection) was 0.03 ± 0.01 % ID/g and the Lung uptake ([1]; 24 h post-injection) was 0.03 ± 0.01 % ID/g. It also gave a Muscle uptake ([1]; 24 h post-injection) of 0.01 ± 0.00 % ID/g, a Pancreas uptake ([1]; 24 h post-injection) of 0.01 ± 0.00 % ID/g and a Seminal uptake ([1]; 24 h post-injection) of 0.01 ± 0.00 % ID/g. For the same compound, the Spleen uptake ([1]; 24 h post-injection) was 0.05 ± 0.01 % ID/g, the Stomach uptake ([1]; 24 h post-injection) was 0.04 ± 0.02 % ID/g and the Testes uptake ([1]; 24 h post-injection) was 0.02 ± 0.01 % ID/g. It also gave a Tumor uptake ([1]; 24 h post-injection) of 10.9 ± 3.30 % ID/g, a Tumor/blood ratio ([1]; 24 h post-injection) of 2293 ± 651 and a Tumor/kidney ratio ([1]; 24 h post-injection) of 20.7 ± 8.39. For the same compound, the Tumor/muscle ratio ([1]; 24 h post-injection) was 1582 ± 353, the Adrenal glands uptake ([1]; 72 h post-injection) was 0.10 ± 0.06 % ID/g and the Blood uptake ([1]; 72 h post-injection) was 0.00 ± 0.00 % ID/g. For the same compound, the Bone uptake ([1]; 72 h post-injection) was 0.05 ± 0.02 % ID/g, the Brain uptake ([1]; 72 h post-injection) was 0.01 ± 0.00 % ID/g and the Fat uptake ([1]; 72 h post-injection) was 0.05 ± 0.02 % ID/g. It also gave a Heart uptake ([1]; 72 h post-injection) of 0.01 ± 0.01 % ID/g, an Intestine uptake ([1]; 72 h post-injection) of 0.01 ± 0.01 % ID/g and a Kidneys uptake ([1]; 72 h post-injection) of 0.22 ± 0.11 % ID/g. For the same compound, the Liver uptake ([1]; 72 h post-injection) was 0.02 ± 0.01 % ID/g, the Lung uptake ([1]; 72 h post-injection) was 0.02 ± 0.01 % ID/g and the Muscle uptake ([1]; 72 h post-injection) was 0.01 ± 0.00 % ID/g. For the same compound, the Pancreas uptake ([1]; 72 h post-injection) was 0.01 ± 0.01 % ID/g, the Seminal uptake ([1]; 72 h post-injection) was 0.01 ± 0.01 % ID/g and the Spleen uptake ([1]; 72 h post-injection) was 0.03 ± 0.02 % ID/g. For the same compound, the Stomach uptake ([1]; 72 h post-injection) was 0.03 ± 0.03 % ID/g, the Testes uptake ([1]; 72 h post-injection) was 0.01 ± 0.00 % ID/g and the Tumor uptake ([1]; 72 h post-injection) was 7.80 ± 3.69 % ID/g. It also gave a Tumor/blood ratio ([1]; 72 h post-injection) of 2206 ± 337, a Tumor/kidney ratio ([1]; 72 h post-injection) of 38.0 ± 13.4 and a Tumor/muscle ratio ([1]; 72 h post-injection) of 1378 ± 335. For the same compound, the Adrenal glands uptake ([1]; 120 h post-injection) was 0.04 ± 0.02 % ID/g, the Blood uptake ([1]; 120 h post-injection) was 0.00 ± 0.00 % ID/g and the Bone uptake ([1]; 120 h post-injection) was 0.02 ± 0.01 % ID/g. The Brain uptake ([1]; 120 h post-injection) was 0.01 ± 0.00 % ID/g, the Fat uptake ([1]; 120 h post-injection) was 0.03 ± 0.01 % ID/g and the Heart uptake ([1]; 120 h post-injection) was 0.00 ± 0.00 % ID/g. It also gave an Intestine uptake ([1]; 120 h post-injection) of 0.03 ± 0.03 % ID/g, a Kidneys uptake ([1]; 120 h post-injection) of 0.08 ± 0.03 % ID/g and a Liver uptake ([1]; 120 h post-injection) of 0.01 ± 0.00 % ID/g. It also gave a Lung uptake ([1]; 120 h post-injection) of 0.01 ± 0.00 % ID/g, a Muscle uptake ([1]; 120 h post-injection) of 0.00 ± 0.00 % ID/g and a Pancreas uptake ([1]; 120 h post-injection) of 0.00 ± 0.00 % ID/g. The Seminal uptake ([1]; 120 h post-injection) was 0.00 ± 0.00 % ID/g, the Spleen uptake ([1]; 120 h post-injection) was 0.02 ± 0.01 % ID/g and the Stomach uptake ([1]; 120 h post-injection) was 0.05 ± 0.05 % ID/g. It also gave a Testes uptake ([1]; 120 h post-injection) of 0.01 ± 0.00 % ID/g, a Tumor uptake ([1]; 120 h post-injection) of 7.91±2.82 % ID/g and a Tumor/blood ratio ([1]; 120 h post-injection) of 4425 ± 1485. For the same compound, the Tumor/kidney ratio ([1]; 120 h post-injection) was 103 ± 75.9, the Tumor/muscle ratio ([1]; 120 h post-injection) was 4388 ± 4211 and the “blood clearance (qualitative)” value ([1]; mouse, in vivo) was “cleared rapidly from blood”. For the same compound, the peaked tumor uptake ([1]; peak over 1-120 h) was 15.1±5.58 % ID/g, the “change of tumor size over time” value (LNCaP tumor-bearing mice; 18.5 MBq) was “shrank initially but grew back later” and the Median survival (LNCaP tumor-bearing mice; 18.5 MBq injected, n=8) was 58 days.
